# Experimental data reported in ChEMBL document CHEMBL4814006, “Novel amino substituted tetracyclic imidazo[4,5-b]pyridine derivatives: Design, synthesis, antiproliferative activity and DNA/RNA binding study” (Eur J Med Chem, 2021).
# Activity calls are given as the source filed them. The rule behind the calls is not given here.
# Assays:
# [1] = tested on: MCF7; test: Antiproliferative activity against human MCF7 cells assessed as inhibition of cell growth incubated for 72 hrs by MTT assay; assay type: functional, cell-based; conditions: MCF7, 72 h
# [2] = tested on: NCI-H460; test: Antiproliferative activity against human NCI-H460 cells assessed as inhibition of cell growth incubated for 72 hrs by MTT assay; assay type: functional, cell-based; conditions: NCI-H460, 72 h
# [3] = tested on: HCT-116; test: Antiproliferative activity against human HCT-116 cells assessed as inhibition of cell growth incubated for 72 hrs by MTT assay; assay type: functional, cell-based; conditions: HCT-116, 72 h
# [4] = tested on: HEK293; test: Cytotoxicity against human HEK293 cells assessed as inhibition of cell growth incubated for 72 hrs by MTT assay; assay type: cell-based; conditions: HEK293, 72 h
# [5] = tested on: Quadruplex DNA; test: Binding affinity to human Tel22 G quadruplex DNA in sodium cacodylate buffer at pH 7 by CD spectroscopy; assay type: nucleic-acid assay
# [6] = tested on: Poly(dG-dC)oligonucleotide; test: Binding affinity to poly(dGdC)2 DNA (unknown origin) assessed as ratio of fluorescence intensity of compound-polynucleotide complex to fluorescence intensity of compound in sodium cacodylate buffer at pH 7 by fluorescence spectroscopy based Scatchard method; assay type: nucleic-acid assay
# [7] = tested on: Poly(dA-dU)oligonucleotide; test: Binding affinity to polyA-polyU RNA (unknown origin) assessed as ratio of fluorescence intensity of compound-polynucleotide complex to fluorescence intensity of compound in sodium cacodylate buffer at pH 7 by fluorescence spectroscopy based Scatchard method; assay type: nucleic-acid assay
# [8] = tested on: Calf thymus DNA; test: Binding affinity to calf thymus DNA assessed as binding constant in sodium cacodylate buffer at pH 7 by fluorescence spectroscopy; conditions: Bos taurus
# [9] = tested on: Quadruplex DNA; test: Binding affinity to human Tel22 G quadruplex DNA assessed as binding constant in sodium cacodylate buffer at pH 7 at binding stoichiometry ratio of 1:1 by fluorescence spectroscopy; assay type: nucleic-acid assay
# [10] = tested on: Poly(dA-dT)oligonucleotide; test: Binding affinity to poly(dAdT)2 DNA (unknown origin) in sodium cacodylate buffer at pH 7 by CD spectroscopy; assay type: nucleic-acid assay
# [11] = tested on: Poly(dG-dC)oligonucleotide; test: Binding affinity to poly(dGdC)2 DNA (unknown origin) assessed as binding constant in sodium cacodylate buffer at pH 7 by fluorescence spectroscopy; assay type: nucleic-acid assay
# [12] = tested on: Calf thymus DNA; test: Binding affinity to calf thymus DNA assessed as ratio of bound compound to polynucleotide phosphate in sodium cacodylate buffer at pH 7 by fluorescence spectroscopy based Scatchard analysis; conditions: Bos taurus
# [13] = tested on: Calf thymus DNA; test: Binding affinity to calf thymus DNA assessed as ratio of fluorescence intensity of compound-polynucleotide complex to fluorescence intensity of compound in sodium cacodylate buffer at pH 7 by fluorescence spectroscopy based Scatchard method; conditions: Bos taurus
# [14] = tested on: Poly(dA-dU)oligonucleotide; test: Binding affinity to polyA-polyU RNA (unknown origin) assessed as binding constant in sodium cacodylate buffer at pH 7 by fluorescence spectroscopy; assay type: nucleic-acid assay
# [15] = tested on: Poly(dA-dU)oligonucleotide; test: Binding affinity to polyA-polyU RNA (unknown origin) assessed as change in melting temperature in sodium cacodylate buffer at pH 7 at compound:polynucleotide concentration ratio of 0.3 by UV/vis spectrophotometric analysis; assay type: nucleic-acid assay
# [16] = tested on: Poly(dA-dT)oligonucleotide; test: Binding affinity to poly(dAdT)2 DNA (unknown origin) assessed as ratio of bound compound to polynucleotide phosphate in sodium cacodylate buffer at pH 7 by fluorescence spectroscopy based Scatchard method; assay type: nucleic-acid assay
# [17] = tested on: Poly(dG-dC)oligonucleotide; test: Binding affinity to poly(dGdC)2 DNA (unknown origin) in sodium cacodylate buffer at pH 7 by CD spectroscopy; assay type: nucleic-acid assay
# [18] = tested on: Poly(dA-dT)oligonucleotide; test: Binding affinity to poly(dAdT)2 DNA (unknown origin) assessed as binding constant in sodium cacodylate buffer at pH 7 by fluorescence spectroscopy; assay type: nucleic-acid assay
# [19] = tested on: Poly(dG-dC)oligonucleotide; test: Binding affinity to poly(dGdC)2 DNA (unknown origin) assessed as ratio of bound compound to polynucleotide phosphate in sodium cacodylate buffer at pH 7 by fluorescence spectroscopy based Scatchard method; assay type: nucleic-acid assay
# [20] = tested on: Poly(dA-dT)oligonucleotide; test: Binding affinity to poly(dAdT)2 DNA (unknown origin) assessed as ratio of fluorescence intensity of compound-polynucleotide complex to fluorescence intensity of compound in sodium cacodylate buffer at pH 7 by fluorescence spectroscopy based Scatchard method; assay type: nucleic-acid assay
# [21] = tested on: Calf thymus DNA; test: Binding affinity to calf thymus DNA assessed as change in melting temperature in sodium cacodylate buffer at pH 7 at compound:polynucleotide concentration ratio of 0.3 by UV/Vis spectrophotometric analysis; assay type: nucleic-acid assay; conditions: Bos taurus
# [22] = tested on: Poly(dA-dU)oligonucleotide; test: Binding affinity to polyA-polyU RNA (unknown origin) assessed as ratio of bound compound to polynucleotide phosphate in sodium cacodylate buffer at pH 7 by fluorescence spectroscopy based Scatchard method; assay type: nucleic-acid assay
# [23] = tested on: Poly(dA-dT)oligonucleotide; test: Binding affinity to poly(dAdT)2 DNA (unknown origin) assessed as change in melting temperature in sodium cacodylate buffer at pH 7 at compound:polynucleotide concentration ratio of 0.3 by UV/Vis spectrophotometric analysis; assay type: nucleic-acid assay
# [24] = tested on: Quadruplex DNA; test: Binding affinity to human Tel22 G quadruplex DNA assessed as ratio of fluorescence intensity of compound-polynucleotide complex to fluorescence intensity of compound in sodium cacodylate buffer at pH 7 at binding stoichiometry ratio of 1:1 by fluorescence spectroscopy; assay type: nucleic-acid assay
# [25] = tested on: Quadruplex DNA; test: Binding affinity to human Tel22 G quadruplex DNA assessed as change in melting temperature in sodium cacodylate buffer at pH 7 by UV/Vis spectrophotometric analysis; assay type: nucleic-acid assay
structure (smiles),measurement,setting,value
N#Cc1cc2ccc(N3CCNCC3)cc2n2c1nc1ncccc12,IC50,[1],3.1 µM
same,IC50,[2],7 µM
same,IC50,[3],0.9 µM
CC(C)CNc1ccc2cc(C#N)c3nc4cccnc4n3c2c1,IC50,[1],0.4 µM
same,IC50,[2],0.3 µM
same,IC50,[4],0.5 µM
same,IC50,[3],0.5 µM
N#Cc1c(N2CCCCC2)c2ccc(N3CCCCC3)cc2n2c1nc1ncccc12,IC50,[1],3.6 µM
same,IC50,[2],7 µM
same,IC50,[3],1.8 µM
N#Cc1cc2ccc(N3CCCCC3)cc2n2c1nc1ncccc12,IC50,[1],5 µM
same,IC50,[2],49 µM
same,IC50,[3],10 µM
CC(C)CNc1ccc2cc(C#N)c3nc4ncccc4n3c2c1,IC50,[1],3 µM
same,IC50,[2],12 µM
same,IC50,[3],3 µM
CC(C)CNc1ccc2c(NCC(C)C)c(C#N)c3nc4ncccc4n3c2c1,IC50,[1],2 µM
same,IC50,[2],7.6 µM
same,Activity,[5],Active
same,IC50,[3],3.7 µM
CN(C)CCCNc1c(C#N)c2nc3ncccc3n2c2ccccc12,IC50,[1],3.2 µM
same,IC50,[2],2 µM
same,IC50,[4],2.6 µM
same,IC50,[3],0.8 µM
N#Cc1c(Cl)c2ccc(F)cc2n2c1nc1cccnc12,IC50,[1],2 µM
same,IC50,[2],≥ 100 µM
same,IC50,[3],3 µM
N#Cc1cc2ccc(F)cc2n2c1nc1cccnc12,IC50,[1],≥ 100 µM
same,IC50,[2],≥ 100 µM
same,IC50,[3],5 µM
N#Cc1c(Cl)c2ccccc2n2c1nc1cccnc12,IC50,[1],6 µM
same,IC50,[2],≥ 100 µM
same,IC50,[3],3 µM
N#Cc1c(N2CCCCC2)c2ccccc2n2c1nc1cccnc12,IC50,[1],16 µM
same,IC50,[2],≥ 100 µM
same,IC50,[3],47 µM
N#Cc1c(N2CCNCC2)c2ccccc2n2c1nc1cccnc12,IC50,[1],4.7 µM
same,IC50,[2],1.8 µM
same,IC50,[3],3.6 µM
CC(C)CNc1c(C#N)c2nc3ncccc3n2c2ccccc12,IC50,[1],14 µM
same,Ratio,[6],0.5
same,Ratio,[7],7.1
same,log Ks,[8],4.5
same,IC50,[2],17.5 µM
same,log Ks,[9],4.69
same,Activity,[10],Active
same,log Ks,[11],5.5
same,Ratio,[12],< 0.1
same,Ratio,[13],2.2
same,log Ks,[14],4.7
same,Activity,[5],Active
same,ΔTm,[15],0.6 °C
same,Ratio,[16],< 0.1
same,IC50,[4],> 100 µM
same,IC50,[3],14 µM
same,Activity,[17],inactive
same,log Ks,[18],5.1
same,Ratio,[19],< 0.1
same,Ratio,[20],8.3
same,ΔTm,[21],0 °C
same,Ratio,[22],0.1
same,ΔTm,[23],0 °C
same,Ratio,[24],4.75
same,ΔTm,[25],1.4 °C
N#Cc1c(N2CCCCC2)c2ccc(N3CCCCC3)cc2n2c1nc1cccnc12,IC50,[1],0.5 µM
same,IC50,[2],≥ 100 µM
same,IC50,[4],> 100 µM
same,IC50,[3],1 µM
